Laboratory results from ChEMBL document CHEMBL1135619, “Cyclosporins: structure-activity relationships for the inhibition of the human MDR1 P-glycoprotein ABC transporter” (J Med Chem, 2002).
pIC50: −log10 of the molar value. Where a SMILES comes first, the peptide text is derived from it. [ ]: non-standard residue; d: D form. NMeBmt(8-OH) = CN[C@H](C(=O)O)[C@H](O)[C@H](C)C/C=C/CO; MeBmt = C/C=C/C[C@@H](C)[C@@H](O)[C@H](NC)C(=O)O; Val(2S-OH) = CC(C)[C@](N)(O)C(=O)O; NMeL = CN[C@@H](CC(C)C)C(=O)O; NMeV = CN[C@H](C(=O)O)C(C)C; Sar = CNCC(=O)O

The molecules below were run against ATP-dependent translocase ABCB1 (Homo sapiens, UniProt P08183) (assay: (§1) Inhibitory activity against Human MDR1 P-Glycoprotein ABC Transporter using leukemia CEM cells). Details: not given.
ATP-dependent translocase ABCB1, sequence (P08183 whole entry): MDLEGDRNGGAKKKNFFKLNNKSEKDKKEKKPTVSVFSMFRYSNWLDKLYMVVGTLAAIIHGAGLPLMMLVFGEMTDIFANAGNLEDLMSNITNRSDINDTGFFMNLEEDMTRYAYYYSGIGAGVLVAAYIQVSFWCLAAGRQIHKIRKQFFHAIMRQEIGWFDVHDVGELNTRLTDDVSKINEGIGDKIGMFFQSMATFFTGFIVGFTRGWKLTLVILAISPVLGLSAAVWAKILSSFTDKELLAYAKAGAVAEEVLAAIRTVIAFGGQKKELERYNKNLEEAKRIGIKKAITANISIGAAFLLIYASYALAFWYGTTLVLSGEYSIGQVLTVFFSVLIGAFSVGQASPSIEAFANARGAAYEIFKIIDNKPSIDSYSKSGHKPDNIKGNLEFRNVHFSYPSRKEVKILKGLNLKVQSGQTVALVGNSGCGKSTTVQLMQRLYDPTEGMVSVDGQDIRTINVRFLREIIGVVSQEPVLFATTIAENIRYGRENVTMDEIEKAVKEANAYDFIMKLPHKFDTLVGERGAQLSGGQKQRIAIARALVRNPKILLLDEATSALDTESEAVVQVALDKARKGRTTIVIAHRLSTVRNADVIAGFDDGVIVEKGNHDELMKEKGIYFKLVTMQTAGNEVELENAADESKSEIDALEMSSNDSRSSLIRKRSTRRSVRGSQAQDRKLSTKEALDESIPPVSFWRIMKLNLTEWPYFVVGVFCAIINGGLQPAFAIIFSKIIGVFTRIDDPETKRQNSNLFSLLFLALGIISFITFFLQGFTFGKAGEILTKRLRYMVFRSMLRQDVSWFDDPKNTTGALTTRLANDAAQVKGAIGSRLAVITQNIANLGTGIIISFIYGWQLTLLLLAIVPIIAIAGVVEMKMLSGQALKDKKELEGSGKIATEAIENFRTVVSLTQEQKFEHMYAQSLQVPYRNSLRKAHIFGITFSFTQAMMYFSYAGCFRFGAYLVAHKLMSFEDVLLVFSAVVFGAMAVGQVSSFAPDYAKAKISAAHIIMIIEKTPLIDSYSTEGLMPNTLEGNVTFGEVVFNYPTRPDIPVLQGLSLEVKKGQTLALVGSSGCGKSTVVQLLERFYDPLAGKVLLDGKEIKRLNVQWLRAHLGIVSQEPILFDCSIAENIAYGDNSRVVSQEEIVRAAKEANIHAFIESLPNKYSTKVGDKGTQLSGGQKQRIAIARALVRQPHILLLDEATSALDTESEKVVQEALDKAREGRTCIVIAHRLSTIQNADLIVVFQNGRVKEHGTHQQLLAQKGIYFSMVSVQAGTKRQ

Compound | pIC50
C/C=C/C[C@@H](C)[C@@H](O)[C@H]1C(=O)N[C@@H](CC)C(=O)N2CCC[C@H]2C(=O)N(C)[C@@H](CC(C)C)C(=O)N[C@@H](C(C)C)C(=O)N(C)[C@@H](CC(C)C)C(=O)N[C@@H](C)C(=O)N[C@H](C)C(=O)N(C)[C@@H](CC(C)C)C(=O)N(C)[C@@H](CC(C)C)C(=O)N(C)[C@@H](C(C)C)C(=O)N1C | 5.28
CC[C@@H]1NC(=O)[C@H](CC2CCCCC2)N(C)C(=O)[C@H](C(C)C)N(C)C(=O)[C@H](CC(C)C)N(C)C(=O)[C@H](CC(C)C)N(C)C(=O)[C@@H](C)NC(=O)[C@H](C)NC(=O)[C@H](CC(C)C)N(C)C(=O)[C@H](C(C)C)NC(=O)[C@H](CC(C)C)N(C)C(=O)CN(C)C1=O | 5.09
C/C=C/C[C@@H](C)C[C@H]1C(=O)N[C@@H](CC)C(=O)N(C)CC(=O)N(C)[C@@H](CC(C)C)C(=O)N[C@@H](C(C)C)C(=O)N(C)[C@@H](CC(C)C)C(=O)N[C@@H](C)C(=O)N[C@H](C)C(=O)N(C)[C@@H](CC(C)C)C(=O)N(C)[C@@H](CC(C)C)C(=O)N(C)[C@@H](C(C)C)C(=O)N1C | 5.66
C/C=C/C[C@@H](C)[C@@H](O)[C@H]1C(=O)N[C@@H]([C@@H](C)O)C(=O)N(C)CC(=O)N[C@@H](C(C)C)C(=O)N[C@@H](C(C)C)C(=O)N(C)[C@@H](CC(C)C)C(=O)N[C@@H](C)C(=O)N[C@H](C)C(=O)N(C)[C@@H](CC(C)C)C(=O)N(C)[C@@H](CC(C)C)C(=O)N(C)[C@@H](C(C)C)C(=O)N1C | < 4.00
C/C=C/C[C@@H](C)[C@@H](O)[C@H]1C(=O)N[C@@H]([C@@H](C)O)C(=O)NCC(=O)N(C)[C@@H](CC(C)C)C(=O)N[C@@H](CC(C)C)C(=O)N(C)[C@@H](CC(C)C)C(=O)N[C@@H](C)C(=O)N[C@](O)(C(C)C)C(=O)N(C)[C@@H](CC(C)C)C(=O)N[C@@H](CC(C)C)C(=O)N(C)[C@@H](C(C)C)C(=O)N1C (cyclo(A[Val(2S-OH)][NMeL]L[NMeV][MeBmt]TG[NMeL]L[NMeL])) | 5.40
C/C=C/C[C@@H](C)[C@@H](O)[C@H]1C(=O)N[C@@H]([C@@H](C)O)C(=O)N(C)CC(=O)N[C@@H](CC(C)C)C(=O)N[C@@H](CC(C)C)C(=O)N(C)[C@@H](CC(C)C)C(=O)N[C@@H](C)C(=O)N[C@](O)(C(C)C)C(=O)N(C)[C@@H](CC(C)C)C(=O)N[C@@H](CC(C)C)C(=O)N(C)[C@@H](C(C)C)C(=O)N1C (cyclo(A[Val(2S-OH)][NMeL]L[NMeV][MeBmt]T[Sar]LL[NMeL])) | 5.37
C/C=C/C[C@@H](C)[C@@H](O)[C@H]1C(=O)N[C@@H]([C@@H](C)O)C(=O)N(C)CC(=O)N(C)[C@@H](CC(C)C)C(=O)N[C@@H](CC(C)C)C(=O)N(C)[C@@H](CC(C)C)C(=O)N[C@@H](C)C(=O)N[C@](O)(C(C)C)C(=O)N(C)[C@@H](CC(C)C)C(=O)N[C@@H](CC(C)C)C(=O)N(C)[C@@H](C(C)C)C(=O)N1C (cyclo(A[Val(2S-OH)][NMeL]L[NMeV][MeBmt]T[Sar][NMeL]L[NMeL])) | 5.80
C/C=C/C[C@@H](C)[C@@H](O)[C@H]1C(=O)N[C@@H]([C@@H](C)O)C(=O)N(C)CC(=O)N(C)[C@@H](CC(C)C)C(=O)N[C@@H](C(C)C)C(=O)N(C)[C@@H](CC(C)C)C(=O)N[C@@H](C)C(=O)N[C@](O)(C(C)C)C(=O)N(C)[C@@H](CC(C)C)C(=O)N[C@@H](CC(C)C)C(=O)N(C)[C@@H](C(C)C)C(=O)N1C (cyclo(A[Val(2S-OH)][NMeL]L[NMeV][MeBmt]T[Sar][NMeL]V[NMeL])) | 5.68
CC(C)C[C@H]1C(=O)N[C@@H](C(C)C)C(=O)N(C)[C@@H](CC(C)C)C(=O)N[C@@H](C)C(=O)N[C@H](C)C(=O)N(C)[C@@H](CC(C)C)C(=O)N(C)[C@@H](CC(C)C)C(=O)N(C)[C@@H](C(C)C)C(=O)N(C)[C@@H](CC(C)C)C(=O)N[C@@H](C(C)C)C(=O)N(C)CC(=O)N1C (cyclo(A[dA][NMeL][NMeL][NMeV][NMeL]V[Sar][NMeL]V[NMeL])) | 5.15

The next lines start with the values.

pIC50 | Compound
5.46 | C/C=C/C[C@@H](C)[C@@H](O)[C@H]1C(=O)N[C@@H](CC)C(=O)N2CCC[C@@H]2C(=O)N(C)[C@@H](CC(C)C)C(=O)N[C@@H](C(C)C)C(=O)N(C)[C@@H](CC(C)C)C(=O)N[C@@H](C)C(=O)N[C@H](C)C(=O)N(C)[C@@H](CC(C)C)C(=O)N(C)[C@@H](CC(C)C)C(=O)N(C)[C@@H](C(C)C)C(=O)N1C
5.40 | CCCCCC[C@H]1C(=O)N[C@@H](CC)C(=O)N(C)CC(=O)N(C)[C@@H](CC(C)C)C(=O)N[C@@H](C(C)C)C(=O)N(C)[C@@H](CC(C)C)C(=O)N[C@@H](C)C(=O)N[C@H](C)C(=O)N(C)[C@@H](CC(C)C)C(=O)N(C)[C@@H](CC(C)C)C(=O)N(C)[C@@H](C(C)C)C(=O)N1C
< 4.52 | C/C=C/C[C@@H](C)[C@@H](O)[C@H]1C(=O)N[C@@H](CC)C(=O)NCC(=O)N(C)[C@@H](CC(C)C)C(=O)N[C@@H](C(C)C)C(=O)N(C)[C@@H](CC(C)C)C(=O)N[C@@H](C)C(=O)N[C@H](CO)C(=O)N(C)[C@@H](CC(C)C)C(=O)N(C)[C@@H](CC(C)C)C(=O)N(C)[C@@H](C(C)C)C(=O)N1C
4.25 | C/C=C/C[C@@H](C)[C@@H](O)[C@H]1C(=O)N[C@@H]([C@@H](C)O)C(=O)N(C)CC(=O)N(C)[C@@H](CC(C)C)C(=O)N[C@@H](CC(C)C)C(=O)N(C)[C@@H](CC(C)C)C(=O)N[C@@H](C)C(=O)N[C@H](C)C(=O)N(C)[C@@H](CC(C)C)C(=O)N[C@@H](C)C(=O)N(C)[C@@H](C(C)C)C(=O)N1C (cyclo(A[NMeV][MeBmt]T[Sar][NMeL]L[NMeL]A[dA][NMeL]))
5.22 | C/C=C/C[C@@H](C)[C@@H](O)[C@H]1C(=O)N[C@@H]([C@@H](C)O)C(=O)N(C)CC(=O)N(C)[C@@H](CC(C)C)C(=O)N[C@@H](CC(C)C)C(=O)N(C)[C@@H](CC(C)C)C(=O)N[C@@H](C)C(=O)N[C@H](C)C(=O)N(C)[C@@H](CC(C)C)C(=O)N[C@@H](CC(C)C)C(=O)N(C)[C@@H](C(C)C)C(=O)N1C (cyclo(A[dA][NMeL]L[NMeV][MeBmt]T[Sar][NMeL]L[NMeL]))

The molecules below were run against MDR1 P-glycoprotein (ABCB1) (Homo sapiens, UniProt P08183) (assay: as §1). Details: human, leukemia CEM cells.
MDR1 P-glycoprotein (ABCB1), sequence (P08183 whole entry): as above

Compound | pIC50
CC/C=C/C[C@@H](C)[C@@H](O)[C@H]1C(=O)N[C@@H](CC)C(=O)N(C)[C@@H](Cc2ccccc2)C(=O)N(C)[C@H](CC(C)C)C(=O)N[C@H](C(C)C)C(=O)N(C)[C@H](CC(C)C)C(=O)N[C@@H](C)C(=O)N[C@H](C)C(=O)N(C)[C@@H](CC(C)C)C(=O)N(C)[C@@H](CC(C)C)C(=O)N(C)[C@@H](C(C)C)C(=O)N1C | 5.82
C/C=C/C[C@@H](C)[C@@H](O)[C@H]1C(=O)N[C@@H]([C@@H](C)O)C(=O)N(C)CC(=O)N(C)[C@@H](CC(C)C)C(=O)N[C@@H]([C@@H](C)CC)C(=O)N(C)[C@@H](CC(C)C)C(=O)N[C@@H](C)C(=O)N[C@](O)(C(C)C)C(=O)N(C)[C@@H](CC(C)C)C(=O)N[C@@H](CC(C)C)C(=O)N(C)[C@@H](C(C)C)C(=O)N1C (cyclo(A[Val(2S-OH)][NMeL]L[NMeV][MeBmt]T[Sar][NMeL]I[NMeL])) | 5.80
CC(C)C[C@@H]1NC(=O)[C@H](CC(C)C)N(C)C(=O)[C@@](O)(C(C)C)NC(=O)[C@H](C)NC(=O)[C@H](CC(C)C)N(C)C(=O)[C@H](CC(C)C)NC(=O)[C@H](CC(C)C)N(C)C(=O)CN(C)C(=O)[C@H]([C@@H](C)O)NC(=O)[C@H]([C@H](O)[C@H](C)C/C=C/CO)N(C)C(=O)[C@H](C(C)C)N(C)C1=O (cyclo(A[Val(2S-OH)][NMeL]L[NMeV][NMeBmt(8-OH)]T[Sar][NMeL]L[NMeL])) | 4.80

Second part, the molecule after the results:

pIC50 | Compound
4.77 | C/C=C/C[C@@H](C)[C@@H](O)C1NC(=O)[C@H](C(C)C)N(C)C(=O)[C@H](CC(C)C)N(C)C(=O)[C@H](CC(C)C)N(C)C(=O)[C@@H](C)NC(=O)[C@H](C)NC(=O)[C@@H](CC(C)C)N(C)C(=O)[C@@H](C(C)C)NC(=O)[C@@H](CC(C)C)N(C)C(=O)CN(C)C(=O)[C@H]([C@@H](C)O)NC1=O (some centres undefined)
4.88 | CC[C@@H]1NC(=O)[C@H](C2CCCCC2C)N(C)C(=O)[C@H](C(C)C)N(C)C(=O)[C@H](CC(C)C)N(C)C(=O)[C@H](CC(C)C)N(C)C(=O)[C@@H](C)NC(=O)[C@H](C)NC(=O)[C@H](CC(C)C)N(C)C(=O)[C@H](C(C)C)NC(=O)[C@H](CC(C)C)N(C)C(=O)CN(C)C1=O (some centres undefined)
